Patent US20070128217A1 (priority 2003, published 2007)

What was measured:
[1] = system: control sera (pooled serum of ten healthy LUMC hospital workers; commercial negative donor pooled serum from the Dutch bloodbank); type: binding, human; parameters: Binding of Control serum LUMC to linear peptides / Binding of Control serum Blood-bank to linear peptides / Binding of Control serum LUMC to looped peptides / Binding of Control Serum Blood-Bank to Looped peptides / Binding of Control serum LUMC to linear peptides of the protein M of SARS-CoV Urbani / Binding of Control serum Blood-bank to linear peptides of the protein M of SARS-CoV Urbani / Binding of Control serum LUMC to looped peptides of the protein M of SARS-CoV Urbani / Binding of Control Serum Blood-Bank to Looped peptides of the protein M of SARS-CoV Urbani: unit not given here
[2] = system: rabbit serum obtained by immunizing a rabbit with the SARS-CoV strain Frankfurt 1; type: binding; parameters: Binding of a rabbit serum to linear peptides / Binding of a rabbit serum to looped peptides / Rabbit serum linear peptides / Rabbit serum looped peptides / Binding of a rabbit serum to linear peptides of protein N of SARS-CoV Urbani (Rabbit serum linear peptides) / Binding of a rabbit serum to looped/cyclic peptides of protein N of SARS-CoV Urbani (Rabbit serum looped peptides): unit not given here
[3] = system: recombinant human anti-SARS-CoV antibody 03-018; type: binding; parameters: Binding of antibody 03-018 to linear peptides of the N protein of SARS-CoV Urbani / Binding of antibody 03-018 to looped/cyclic peptides of the N protein of SARS-CoV Urbani: unit not given here

Row | Sequence | Binding of Control Serum Blood-Bank to Looped peptides [1] | Binding of Control serum Blood-bank to linear peptides [1] | Binding of Control serum LUMC to linear peptides [1] | Binding of Control serum LUMC to looped peptides [1] | Binding of a rabbit serum to linear peptides of protein N of SARS-CoV Urbani (Rabbit serum linear peptides) [2] | Binding of a rabbit serum to looped/cyclic peptides of protein N of SARS-CoV Urbani (Rabbit serum looped peptides) [2] | Binding of antibody 03-018 to linear peptides of the N protein of SARS-CoV Urbani [3] | Binding of antibody 03-018 to looped/cyclic peptides of the N protein of SARS-CoV Urbani [3] | Recognition of the peptide by the rabbit serum [2] | Control Serum Blood-Bank Looped peptides [1] | Control serum Blood-bank linear peptides [1] | Control serum LUMC linear peptides [1] | Control serum LUMC looped peptides [1]
1 | VLQLPQGTTLPKGFY | 0.7 | 0.7 | 0.6 | 0.8 | 0.2 | 0.4 | 0.1 | 0.3 |  |  |  |  | 
2 | QLPQGTTLPKGFYAE | 0.6 | 0.9 | 0.7 | 0.6 | 0.2 | 0.4 | 0.1 | 0.2 |  |  |  |  | 
3 | QGTTLPKGFYAEGSR | 0.7 | 0.8 | 0.7 | 0.7 | 0.1 | 0.6 | 0.1 | 0.2 |  |  |  |  | 
4 | RTATKQYNVTQAFGR | 0.8 | 0.9 | 0.8 | 0.9 |  |  | 0.1 | 0.2 | recognized |  |  |  | 
5 | ARMASGGGETALALL | 0.6 | 0.8 | 0.7 | 0.8 | 0.2 | 0.0 | 0.1 | 0.3 |  |  |  |  | 
6 | PQFKDNVILLNKHID |  |  |  |  | 0.2 | 0.4 | 0.1 | 0.2 |  | 0.7 | 0.7 | 0.7 | 0.8
7 | NNAATVLQLPQGTTL | 0.8 | 0.9 | 0.9 | 0.8 | 0.2 | 0.4 | 0.1 | 0.3 |  |  |  |  | 
8 | QKRTATKQYNVTQAF | 0.8 | 0.8 | 0.7 | 0.8 |  |  | 0.1 | 0.2 | recognized |  |  |  | 
9 | NSPARMASGGGETAL | 0.3 | 0.9 | 0.7 | 0.4 | 0.3 | 0.3 | 0.1 | 0.2 |  |  |  |  | 
10 | IKLDDKDPQFKDNVI |  |  |  |  | 0.1 | 0.3 | 0.1 | 0.2 |  | 0.6 | 0.9 | 0.9 | 0.6
11 | PRQKRTATKQYNVTQ | 1.0 | 1.0 | 0.9 | 0.9 |  |  | 0.1 | 0.2 | recognized |  |  |  | 
12 | LPQGTTLPKGFYAEG | 0.9 | 0.8 | 0.8 | 0.8 | 0.1 | 0.7 | 0.1 | 0.3 |  |  |  |  | 
13 | TLPKGFYAEGSRGGS | 0.5 | 0.7 | 1.2 | 0.5 | 0.5 | 0.3 | 0.1 | 0.2 |  |  |  |  | 
